Reference: patent US12077608B2, “Stapled H2 pyrin peptides” (H. LEE MOFFITT CANCER CENTER AND RESEARCH INSTITUTE, INC., priority 2018, dated 2024)
Read-outs that look alike come from different tables or passages of the source. Values belong to the compound of their own block, whether it stands above or below them. Bridge positions count the residues as written; N and C are the ends. Square brackets hold non-standard residues; d marks the D form. Ends that are not written are not given here. Peptide text beside a SMILES is read from it. * marks the point of attachment. FITC = O=C1OC2(c3ccc(O)cc3Oc3cc(O)ccc32)c2ccc(NC(=S)*)cc21; S5 = C=CCCC[C@](C)(N)C(=O)O; Nle = CCCC[C@H](N)C(=O)O; βAla = NCCC(=O)O

How the values were obtained:
[1] = system: ASC speck formation in THP-1 ASC-GFP cells; assay: ASC speck assay, live-cell imaging; format: cell-based, Human; conditions: for ASC speck formation remaining with inhibitor: 5 μM peptide, nigericin at 5 μM gives 38%
Method: ASC speck is a hallmark of inflammasome formation (Dick et al., 2016; Hoss et al., 2017) and observable by microscopy (Doyle et al., 2012; Stutz et al., 2013). THP-1 ASC-GFP cells stably expressing the ASC-GFP fusion protein (InvivoGen Catalog #: thp-ascgfp) were used to visualize the inhibitory effect of SAH-POP1-4 on ASC specks formation (Fernandes-Alnemri et al., 2007).
Experimental Procedure for ASC Speck Assay. THP1 ASC-GFP cells were seeded at 2×10^6/ml (0.7-1 mL) in RPMI1640 medium with 10% FCS in FluoroDish (FD35-100) and cultivated in the presence of 50 nM phorbol-12-myristate-13-acetate (PMA) for 24 h, then media was replaced by fresh media and incubated for 24 h. Then cells were stimulated with 200 ng/ml LPS from E. coli (sigma) for 3 h. The media was removed and replaced with serum-free medium (OptiMEM) containing DMSO (1:1,000), 20 μM inhibitors for 30 min. […] Control samples were incubated with media lacking LPS or nigericin. Then, ASC specks were tested by confocal microscopy SP8 (Leica Microsystems).
ASC speck is the hallmark of inflammasome formation and observable by microscopy. THP-1 ASC-GFP cells stably expressing the ASC-GFP fusion protein (InvivoGen Catalog #: thp-ascgfp) were used to visualize the inhibitory effect of SAH-POP1-17 on ASC specks formation (Fernandes-Alnemri et al., 2007). […] SAH-POP1-17 at 5 μM inhibited ASC speck formation to 4%, and SAH-POP1-18 at 5 μM inhibited ASC speck formation to 8%.

[2] = Circular dichroism (CD) secondary structure of the peptides; format: physicochemical; conditions: aqueous solution; 100 μM peptide in 10 mM potassium phosphate, 100 mM potassium fluoride buffer (pH=7.5)
Method: Circular dichroism (CD) was used to determine the secondary structure of the peptides. […] Hydrocarbon stapling promoted α-helix contents with SAH-POP1-4 and SAH-POP1-8 having the highest in aqueous solution.
CD spectra were recorded on an AVIV Model 215 Circular Dichroism Spectrometer. Each spectrum was collected with the wavelength between 190 to 260 nm, 0.5 nm increments, and 0.5 s averaging time using a 1-mm path length cell. The peptide concentration was 100 μM in 10 mM potassium phosphate and 100 mM potassium fluoride buffer (pH=7.5). The studied peptides were completely dissolved in this buffer. CD spectra were initially plotted as wavelength versus millidgree, the default output of the instrument. Once the precise peptide concentration was confirmed, the mean residue ellipticity [Θ] was calculated for the y-axis.

GST-NLRP3^PYD = target: T1, GST-NLRP3^PYD (Homo sapiens, UniProt Q96P20); assay: KD (μM) | GST-NLRP3^PYD
T1 construct: human NLRP3 (residues 3-110) was cloned into a pET-21b vector; made in house; host or cells: E. coli BL21 DE3
From the text: Table printed on a drawing sheet, FIG. 10
Head of the field: KD (μM) | GST-NLRP3^PYD
The patent's description of the figure: FIG. 10 is a table showing the results from a fluorescence anisotropy binding assay to determine the accurate binding affinities of stapled peptides fPOP1-H2 (SEQ ID NO: 2), fSAH-POP1-1 (SEQ ID NO: 1), fSAH-POP1-3 (SEQ ID NO: 3), fSAH-POP1-4 (SEQ ID NO: 4), fSAH-POP1-5 (SEQ ID NO: 5), fSAH-POP1-6 (SEQ ID NO: 6), fSAH-POP1-7 (SEQ ID NO: 7), fSAH-POP1-8 (SEQ ID NO: 8), fSAH-POP1-9 (SEQ ID NO: 9), fSAH-POP1-10 (SEQ ID NO: 10), fSAH-POP1-11 (SEQ ID NO: 11), fSAH-POP1-12 (SEQ ID NO: 12), fSAH-POP1-13 (SEQ ID NO: 13), fSAH-POP1-14 (SEQ ID NO: 14), fSAH-POP1-15 (SEQ ID NO: 15), fSAH-POP1-16 (SEQ ID NO: 16), fSAH-POP1-17 (SEQ ID NO: 17), fSAH-POP1-18 (SEQ ID NO: 18), fSAH-POP1-19 (SEQ ID NO: 19), fSAH-POP1-20 (SEQ ID NO: 20), fSAH-POP1-21 (SEQ ID NO: 21), fSAH-POP1-22 (SEQ ID NO: 22), fSAH-POP1-23 (SEQ ID NO: 23), fSAH-POP1-24 (SEQ ID NO: 24), fSAH-POP1-25 (SEQ ID NO: 25), fSAH-POP1-26 (SEQ ID NO: 26), fSAH-POP1-27 (SEQ ID NO: 27), fSAH-POP1-28 (SEQ ID NO: 28), fSAH-POP1-29 (SEQ ID NO: 29), fSAH-POP1-30 (SEQ ID NO: 30), fSAH-POP1-31 (SEQ ID NO: 31).
First copying reader's note: In the structures S5, NL (N with lowered L) and NH2 carry lowered signs, a drawn bracket joins the two S5 residues (staple), and the SEQ ID NO column is printed outside the table frame. […]

[3] = system: caspase-1 activity in Human THP-1 monocytes; assay: Promega Caspase-Glo 1 Inflammasome Assay (cell-based bioluminescent caspase-1 activity assay); conditions: for inhibited caspase-1 activities: 5 μM inhibitor, PMA-differentiated THP-1, LPS and nigericin stimulated
From the text: Promega Caspase-Glo™ 1 Inflammasome Assay. A cell-based bioluminescent caspase-1 activity assay (O'Brien et al., 2017) (Promega Caspase-Glo™ | Inflammasome Assay Kit G9951) was used to evaluate the inhibitory activity of SAH-POP1-4 and SAH-POP1-8 on inhibition of inflammasome formation and caspase-1 activation. Human THP-1 monocytes were differentiated with phorbol 12-myristate 13-acetate (PMA), and treated sequentially with lipopolysaccharide (LPS), a Toll-like receptor 4 (TLR4) agonist, and nigericin, a K^+ ionophore to promote K^+ efflux, resulting in NLRP3- and ASC-dependent caspase-1 activation. The cells were then treated with the inhibitors. […] Experimental Procedure for Promega caspase-Glo™ 1 Inflammasome Assay: THP1 cells were seeded at 5×10^5/ml in RPMI1640 medium with 10% FCS in 96-well plates and cultivated in the presence of 50 nM phorbol-12-myristate-13-acetate (PMA) for 24 h. Then the media was replaced with fresh media and incubated for 24 h. The cells were stimulated with 200 ng/ml LPS in E. coli (Sigma) for 3 h. The media was removed and replaced with serum-free media (OptiMEM) containing DMSO (1:1,000), 5 μM inhibitors for 30 min. Cells were then stimulated with the inflammasome activators: 5 μM nigericin 2 h. Control samples were incubated with medium lacking LPS or nigericin. Then the activity of the active caspase-1 was measured by Caspase-Glo™ 1 inflammasome assay (Promega). A cell-based bioluminescent caspase-1 activity assay (Promega Caspase-Glo™ 1 Inflammasome Assay Kit G9951) was used to evaluate the inhibitory activity of SAH-POP1-17 and SAH-POP1-18 on inhibition of inflammasome formation and caspase-1 activation. Human THP-1 monocytes were differentiated with phorbol 12-myristate 13-acetate (PMA), and treated sequentially with lipopolysaccharide (LPS), a Toll-like receptor 4 (TLR4) agonist, and nigericin, a K^+ ionophore to promote K^+ efflux, resulting in NLRP3- and ASC-dependent caspase-1 activation. The cells were then treated with the inhibitors. […] Experimental Procedure for Promega caspase-Glo™ 1 Inflammasome Assay: THP1 cells were seeded at 5×10^5/ml in RPMI1640 medium with 10% FCS in 96-well plates and cultivated in the presence of 50 nM phorbol-12-myristate-13-acetate (PMA) for 24 h. Then the media was replaced with fresh media and incubated for 24 h. The cells were stimulated with 200 ng/ml LPS in E. coli (Sigma) for 3 h. The media was removed and replaced with serum-free media (OptiMEM) containing DMSO (1:1,000), 5 μM inhibitors for 30 min. Cells were then stimulated with the inflammasome activators: 5 μM nigericin 2 h. Control samples were incubated with medium lacking LPS or nigericin. Then the activity of the active caspase-1 was measured by Caspase-Glo™ 1 inflammasome assay (Promega).

T1 sequence (Q96P20 3-110): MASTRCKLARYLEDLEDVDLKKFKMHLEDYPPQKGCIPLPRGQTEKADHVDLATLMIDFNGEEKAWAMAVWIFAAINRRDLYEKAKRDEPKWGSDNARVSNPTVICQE

Compound: SAH-POP1-18: Stapled peptide synthesized by FIG. 11, SEQ ID NO: 45 (Q[S5]LRR[S5]QWFLWTA-NH2; staple 2-6; N-terminus assumed; SMILES CC(C)C[C@H](NC(=O)[C@H](Cc1ccccc1)NC(=O)[C@H](Cc1c[nH]c2ccccc12)NC(=O)[C@H](CCC(N)=O)NC(=O)[C@]1(C)CCCC=CCCC[C@](C)(NC(=O)[C@@H](N)CCC(N)=O)C(=O)N[C@@H](CC(C)C)C(=O)N[C@@H](CCCNC(=N)N)C(=O)N[C@@H](CCCNC(=N)N)C(=O)N1)C(=O)N[C@@H](Cc1c[nH]c2ccccc12)C(=O)N[C@H](C(=O)N[C@@H](C)C(N)=O)[C@@H](C)O)
- ASC speck formation remaining with inhibitor [1]: 8%

Compound: POP1-H2: Reference peptide, unstapled, amino acid sequence EELKKFKMKLGTV [reference compound]
- α-helical structure / α-helix contents by circular dichroism [2]: does not exhibit α-helical structure

- Kd (GST-NLRP3^PYD): 27 ± 2.3 µM
Compound: CCCC[C@H](NC(=O)[C@H](CCCCN)NC(=O)[C@H](Cc1ccccc1)NC(=O)[C@H](CCCCN)NC(=O)[C@H](CCCCN)NC(=O)[C@H](CC(C)C)NC(=O)[C@H](CCC(=O)O)NC(=O)[C@H](CCC(=O)O)NC(=O)CCNC(=S)Nc1ccc2c(c1)C(=O)OC21c2ccc(O)cc2Oc2cc(O)ccc21)C(=O)N[C@@H](CCCCN)C(=O)N[C@@H](CC(C)C)C(=O)NCC(=O)N[C@H](C(=O)N[C@H](C(N)=O)C(C)C)[C@@H](C)O [fPOP1-H2] ({FITC-βAla}-EELKKFK[Nle]KLGTV-NH2)

Compound: SAH-POP1-17: Stapled peptide synthesized by FIG. 11, SEQ ID NO: 44 (QXLRRXQWXLWTA; hydrocarbon staple; (2)..(2) X= S5=(S)-2-(4-pentenyl)alanineS5, the two Xs are also directly connected by a double bond; (6)..(6) X= S5=(S)-2-(4-pentenyl)alanineS5, the two Xs are also directly connected by a double bond; (9)..(9) X= NL = norleucine)
- ASC speck formation remaining with inhibitor [1]: 4%

Compound: SAH-POP1-4: hydrocarbon stapled peptide, amino acid sequence ES5LKKS5KMKLGTV (E[S5]LKK[S5]KMKLGTV-NH2; staple 2-6; N-terminus assumed; SMILES CSCC[C@H](NC(=O)[C@H](CCCCN)NC(=O)[C@]1(C)CCCC=CCCC[C@](C)(NC(=O)[C@@H](N)CCC(=O)O)C(=O)N[C@@H](CC(C)C)C(=O)N[C@@H](CCCCN)C(=O)N[C@@H](CCCCN)C(=O)N1)C(=O)N[C@@H](CCCCN)C(=O)N[C@@H](CC(C)C)C(=O)NCC(=O)N[C@H](C(=O)N[C@H](C(N)=O)C(C)C)[C@@H](C)O)
- cell permeability [3]: cell permeable
- inhibited caspase-1 activities [3]: 43%
- inhibition of ASC speck formation ([1]; 20 μM peptide, nigericin-activated THP-1 ASC-GFP cells): completely inhibited
- α-helical structure / α-helix contents by circular dichroism [2]: highest

Compound: CO[C@@H]1C[C@@H](C[C@H]2CC[C@H](C)[C@H]([C@@H](C)C(=O)O)O2)O[C@]2(O[C@](C)([C@H]3CC[C@@](C)([C@@H]4O[C@@H]([C@H]5O[C@@](O)(CO)[C@H](C)C[C@@H]5C)C[C@@H]4C)O3)C[C@H]2C)[C@@H]1C [nigericin, reference compound]
- activation of ASC speck formation ([1]; nigericin at 2 μM): activated ASC speck formation
- ASC speck formation activated ([1]; nigericin at 5 μM, no inhibitor): 38%

- cell permeability ([3]; THP-1 cells, inferred from caspase-1 assay): cell permeable
- α-helical structure / α-helix contents by circular dichroism [2]: highest
Compound: CCCC[C@H](NC(=O)[C@H](CCCCN)NC(=O)[C@]1(C)CCCC=CCCC[C@](C)(NC(=O)[C@@H](N)CCC(=O)O)C(=O)N[C@@H](CC(C)C)C(=O)N[C@@H](CCCCN)C(=O)N[C@@H](CCCCN)C(=O)N1)C(=O)N[C@@H](CCCCN)C(=O)N[C@@H](CC(C)C)C(=O)NCC(=O)N[C@H](C(=O)N[C@@H](C)C(N)=O)[C@@H](C)O [SAH-POP1-8] (H-E[S5]LKK[S5]K[Nle]KLGTA-NH2; staple 2-6; N-terminus assumed)
- inhibited caspase-1 activities [3]: 41%
